Test results as given in US20090175981A1, “COMPOSITIONS, METHODS AND USES FOR A NOVEL FAMILY OF PEPTIDES” (priority 2004, published 2009).
Values joined by “and” are separate entries in the source; they are usually repeats but may differ in a detail not shown here. Equal entries are not always repeated. Marks after values point to notes of the source that are not given here.

Columns and labels:
[1] = biological target: A-domain of BT NRPS Module 8 (Bt8A) (Brevibacillus texasporus, UniProt Q2VQ14); assay: ATP-PPi exchange assay, Module 8 A-domain; format: biochemical; settings: for relative activation (highest activity = 100%): 0.5 mM amino acid
Sequence of A-domain of BT NRPS Module 8 (Bt8A) (Q2VQ14 entry or part of it): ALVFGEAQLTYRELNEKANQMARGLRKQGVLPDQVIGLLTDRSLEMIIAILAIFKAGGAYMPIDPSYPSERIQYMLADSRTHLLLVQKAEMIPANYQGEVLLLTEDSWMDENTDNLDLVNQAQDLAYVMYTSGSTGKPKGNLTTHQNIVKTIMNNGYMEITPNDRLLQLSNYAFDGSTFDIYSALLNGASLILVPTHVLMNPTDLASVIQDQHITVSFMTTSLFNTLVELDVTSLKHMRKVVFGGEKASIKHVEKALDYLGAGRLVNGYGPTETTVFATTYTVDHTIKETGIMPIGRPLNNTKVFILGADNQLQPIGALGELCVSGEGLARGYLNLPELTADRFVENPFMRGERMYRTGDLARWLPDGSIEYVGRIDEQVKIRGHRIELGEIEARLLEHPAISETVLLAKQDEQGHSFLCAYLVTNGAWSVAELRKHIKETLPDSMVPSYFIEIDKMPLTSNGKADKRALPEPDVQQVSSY
Method: (§1) Cloning, overexpression, and purification of His10-tagged BT A-domain proteins. DNA fragments encoding the A-domains of the BT NRPS Modules 8, 5, 7, 4 and 2 (Bt8A, 8t5A, Bt7A, Bt4A and Bt2A) were PCR-amplified and the PCR products were inserted into the His10-tag recombinant protein expression vector pET16b (Novagen). The A-domain borders were determined as defined by (Konz, et al., 1999). The expression constructs were transformed into the E. coli BL21-AI strain (Invitrogen). Transformants were grown in L-broth at 37° C. to an A600 of 0.6 and then induced with 1 mM IPTG (isopropyl-β-D-thiogalactopyranoside) plus 0.2% L-arabinose. The cells were allowed to grow for two additional hours at 30° C. before being harvested. Purification of the His10-tag recombinant proteins was achieved using the TALON metal affinity resins (BD Biosciences) under conditions recommended in the manual with modifications. Briefly, the E. coli cells were broken by sonication. Cell lysates were cleared by centrifugation at 25,000×g for one hour. His-tagged recombinant proteins were then incubated with the TALON resin, washed, and eluted with 500 mM imidazole. Eluted proteins were dialyzed against a buffer (50 mM HEPES, pH 8.0, 100 mM sodium chloride, 10 mM magnesium chloride, and 1 mM EDTA) and then analyzed with SDS PAGE plus Coomassie Blue staining. […] Concentrations of the purified proteins were determined by using the calculated molar extinction coefficient for the A280.
(§2) ATP-PPi exchange assay. ATP-PPi exchange assays were performed to determine the substrate specificity of an A-domain. ATP-PPi exchanges were assayed as previously described (Stachelhaus, et al., 1998) with minor modifications. The assay mixture contained 50 mM HEPES (pH 8.0), 100 mM NaCl, 10 mM MgCl2, 2 mM ATP, 0.5 mM amino acid, 0.05 mM PPi, 0.15 μCi tetrasodium [^32P]pyrophosphate. Exchange was initiated by addition of purified recombinant A-domain proteins to a total volume of 0.1 ml. The protein concentrations were 0.2 μM for Module 4 and Module 5 A-domains while 2 μM for Module 7 and Module 8 A-domains. […] The charcoal/water suspension was added to a scintillation vial containing 5.0 ml of scintillation fluid, and the bound radioactivity was determined by liquid scintillation counting. […]
(§3) Since a purified recombinant A-domain of an NRPS module can selectively and efficiently activate the cognate amino acid substrate of the NRPS module in an ATP-PPi exchange assay (Konz, et al., 1999; Mootz & Marahiel, 1997), ATP-PPi exchange assays have been used to experimentally establish NRPS module specificities and novel NRPS codons. […] A-domain specificities were determined in ATP-PPi exchange and aa Km assays (see Methods and Materials), and the results are shown in FIG. 5. […]

[2] = biological target: A-domain of BT NRPS Module 5 (Brevibacillus texasporus, UniProt Q2VQ15); assay: ATP-PPi exchange assay, Module 5 A-domain; format: biochemical; settings: for relative activation (highest activity = 100%): 0.5 mM amino acid; for Km: read-out: apparent Km
Sequence of A-domain of BT NRPS Module 5 (Q2VQ15 entry or part of it): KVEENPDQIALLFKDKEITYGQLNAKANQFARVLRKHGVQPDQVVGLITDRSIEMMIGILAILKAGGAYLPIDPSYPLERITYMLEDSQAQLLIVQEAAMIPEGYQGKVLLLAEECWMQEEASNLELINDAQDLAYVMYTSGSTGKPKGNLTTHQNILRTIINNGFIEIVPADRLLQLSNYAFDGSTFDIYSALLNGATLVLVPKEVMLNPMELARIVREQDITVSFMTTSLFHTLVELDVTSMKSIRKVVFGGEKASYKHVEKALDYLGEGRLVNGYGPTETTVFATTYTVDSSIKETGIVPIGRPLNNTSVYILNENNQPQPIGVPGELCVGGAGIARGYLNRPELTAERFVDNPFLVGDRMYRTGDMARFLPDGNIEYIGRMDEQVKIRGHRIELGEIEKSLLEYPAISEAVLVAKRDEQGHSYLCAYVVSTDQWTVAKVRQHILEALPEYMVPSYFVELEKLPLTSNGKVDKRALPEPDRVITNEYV
Method: as §1
(§4) ATP-PPi exchange assay. ATP-PPi exchange assays were performed to determine the substrate specificity of an A-domain. ATP-PPi exchanges were assayed as previously described (Stachelhaus, et al., 1998) with minor modifications. The assay mixture contained 50 mM HEPES (pH 8.0), 100 mM NaCl, 10 mM MgCl2, 2 mM ATP, 0.5 mM amino acid, 0.05 mM PPi, 0.15 μCi tetrasodium [^32P]pyrophosphate. Exchange was initiated by addition of purified recombinant A-domain proteins to a total volume of 0.1 ml. The protein concentrations were 0.2 μM for Module 4 and Module 5 A-domains while 2 μM for Module 7 and Module 8 A-domains. After incubation at 37° C. for 15 min, the reaction was stopped by addition of 0.5 ml of Terminaton Mix (100 mM tetrasodium pyrophosphate, 3.5% HClO4, and 1.6% [w/v] activated charcoal). The charcoal was pelleted by centrifugation, washed first with 40 mM pyrophosphate plus 1.4% perchloric acid and then with water, and was re-suspended in 0.5 ml of water. The charcoal/water suspension was added to a scintillation vial containing 5.0 ml of scintillation fluid, and the bound radioactivity was determined by liquid scintillation counting. The apparent Km values were determined with substrate concentrations ranging from 0.1 to 10 mM.
(§5) Since a purified recombinant A-domain of an NRPS module can selectively and efficiently activate the cognate amino acid substrate of the NRPS module in an ATP-PPi exchange assay (Konz, et al., 1999; Mootz & Marahiel, 1997), ATP-PPi exchange assays have been used to experimentally establish NRPS module specificities and novel NRPS codons. Recombinant A-domains of Modules 8, 5, 7, 4 and 2 of the BT NRPS were produced and purified as described in Methods and Materials. Almost completely soluble recombinant A-domain proteins were obtained. A-domain specificities were determined in ATP-PPi exchange and aa Km assays (see Methods and Materials), and the results are shown in FIG. 5. […]

[3] = biological target: A-domain of BT NRPS Module 4 (Bt4A) (Brevibacillus texasporus, UniProt Q2VQ15); assay: ATP-PPi exchange assay, Module 4 A-domain; format: biochemical; settings: for relative activation (highest activity = 100%): 0.5 mM amino acid
Sequence of A-domain of BT NRPS Module 4 (Bt4A) (Q2VQ15 entry or part of it): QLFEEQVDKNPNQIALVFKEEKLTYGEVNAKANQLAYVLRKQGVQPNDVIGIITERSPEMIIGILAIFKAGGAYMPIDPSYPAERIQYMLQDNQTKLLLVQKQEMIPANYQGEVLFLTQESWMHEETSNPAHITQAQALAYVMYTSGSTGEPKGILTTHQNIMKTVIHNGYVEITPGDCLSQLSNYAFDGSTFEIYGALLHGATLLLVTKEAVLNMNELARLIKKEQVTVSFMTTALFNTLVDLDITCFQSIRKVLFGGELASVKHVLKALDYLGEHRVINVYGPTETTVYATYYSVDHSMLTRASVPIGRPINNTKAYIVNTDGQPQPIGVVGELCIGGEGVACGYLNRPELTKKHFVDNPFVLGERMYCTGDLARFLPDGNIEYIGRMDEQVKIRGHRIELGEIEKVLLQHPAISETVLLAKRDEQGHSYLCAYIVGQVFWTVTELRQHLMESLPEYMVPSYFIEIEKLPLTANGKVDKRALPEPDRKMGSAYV
Method: as §1, §2, §3

[4] = test system: A-domain of BT NRPS Module 2 (Bt2A); assay: ATP-PPi exchange assay, Module 2 A-domain; format: biochemical, Brevibacillus texasporus; settings: 0.5 mM amino acid
Method: as §1, §4, §5

straight run broilers = assay: Growth and feed conversion of 3-wk old broilers in batteries, pelleted starter feed (Studies 3-1 and 3-2); format: in vivo, chicken; settings: BT1583 12 ppm, BMD 50 ppm, COB 90 ppm, alone or combined, pelleted feed
Text: Eight (8) study repetitions per treatment were used, again with 4 birds per pen.

broiler chickens = assay: 42-day broiler floor pen trial with natural colibacillosis challenge; format: in vivo, chicken; settings: for Day 42 Feed/Gain / Day 42 Gain/Bird / Day 42 Mortality (%) / Day 42 Adjusted Feed/Gain: MON 99 ppm, BT1583 12 ppm, BMD 55 ppm; for Day 42 Feed/Gain / Day 42 Gain/Bird: alone or combined; for Day 42 Mortality (%): acute and chronic colibacillosis; for Day 42 Adjusted Feed/Gain: adjusted for weight of mortality
Method: A broiler floor pen trial to compare the performance of a new anti-microbial designated for this project as BT1583 alone and in combination with the widely used coccidiostat monensin (MON) to MON fed alone, MON in combination with the also widely used antimicrobial Bacitracin MD (BMD) and BMD alone.
The following levels of each treatment were evaluated:
The study design included 10 pens per treatment and 40 birds per pen housed on day of hatch. Two basal corn-soy based diets of decreasing protein (approximately 23 to 20%) and increasing metabolizable energy (approximately 1400 to 1455 kcal/lb) were used from Day 0 to 21 (starter feed) and Days 22 to 42 (grower feed), respectively. Treatment premixes were measured and blended into diets at required levels. Between days 0 and 21 mortality was less than 1% with all birds growing optimally and of high health across all groups.
Beginning on study day 22, the study director modulated house temperature and air flow to mimic industry conditions conducive to outbreaks of colibacillosis within naïve broiler flocks. This was done to stimulate a natural challenge for this study. Mortality climbed to a house average of approximately 10% by Day 42. A majority of these deaths occurred in groups not receiving BT1583 or MON. Lesions were consistent with those of colibacillosis (air sac, pneumonia, peri-hepatitis, peri-carditis and extreme morbidity). All mortality was documented (weight at death and post-mortem observations). All birds and feeds were weighed at 42 days. All remaining birds were euthanized on Day 42 by asphyxiation with the carcasses submitted for rendering.
The following variables were tested: Response Variables: Gain Per Bird, Feed Per Gain, Mortality (%), Adjusted Feed Per Gain. F test from One Way ANOVA with one blocking factor=location, at Day 42 using 0.05 level of significance.
All Response Variables: LSD T-test procedure for pair-wise comparisons with Type 1 error of means when ANOVA F ratio is significant, overall significance level of 0.05 used. Lines below means (see Table 30, below) indicate groups with insignificant differences in means.
Adjusted Feed/Gain: The total weight of mortality in each pen was added to the final live weight, that value reduced by subtracting the initial weight and then dividing that value into the Total feed consumed to calculate the Adjusted Feed/Gain.

[5] = biological target: A-domain of BT NRPS Module 7 (Bt7A) (Brevibacillus texasporus, UniProt Q2VQ15); assay: ATP-PPi exchange assay, Module 7 A-domain; format: biochemical; settings: 0.5 mM amino acid
Sequence of A-domain of BT NRPS Module 7 (Bt7A) (Q2VQ15 entry or part of it): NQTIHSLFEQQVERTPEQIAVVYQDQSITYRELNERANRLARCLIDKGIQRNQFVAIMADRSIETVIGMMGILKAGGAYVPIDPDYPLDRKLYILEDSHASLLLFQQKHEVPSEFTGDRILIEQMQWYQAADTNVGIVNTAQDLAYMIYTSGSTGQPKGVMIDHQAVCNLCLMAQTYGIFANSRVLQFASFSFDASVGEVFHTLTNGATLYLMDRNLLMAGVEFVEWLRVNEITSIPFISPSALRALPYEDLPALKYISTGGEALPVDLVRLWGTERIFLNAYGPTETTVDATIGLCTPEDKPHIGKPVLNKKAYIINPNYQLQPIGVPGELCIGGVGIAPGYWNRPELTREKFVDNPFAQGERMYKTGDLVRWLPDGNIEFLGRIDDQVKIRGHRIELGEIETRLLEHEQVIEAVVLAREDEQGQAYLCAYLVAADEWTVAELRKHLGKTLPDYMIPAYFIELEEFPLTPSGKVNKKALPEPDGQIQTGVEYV

CC[C@H](C)[C@H](N)C(=O)O [L-Ile]
relative activation (highest activity = 100%) [1]: 4%
relative activation (highest activity = 100%) [2]: 23%
Km [2]: 2780 µM
relative activation (highest activity = 100%) [3]: 100%
Km ([3]; read-out: apparent Km): 500 µM
relative activation (highest activity = 100%) [4]: 19%

CC[C@@]1([C@@H]2O[C@@H]([C@H]3O[C@@](O)(CO)[C@H](C)C[C@@H]3C)C[C@@H]2C)CC[C@H]([C@]2(C)CC[C@]3(C[C@H](O)[C@@H](C)[C@@H]([C@@H](C)[C@@H](OC)[C@H](C)C(=O)O)O3)O2)O1 [Monensin, monensin]
20-day cumulative feed conversion rate, Mean (straight run broilers): 1.3712
21-day cumulative feed conversion rate, Estimated Marginal Mean (straight run broilers): 1.371
21-day cumulative weight gain, Mean (straight run broilers; listed as COB): 792.8438 and 792.844
Day 42 Feed/Gain (broiler chickens): 1.854^b
Day 42 Gain/Bird (broiler chickens): 4.111^bcd lb
Day 42 Mortality (%) (broiler chickens): 8.00^a %
Day 42 Adjusted Feed/Gain (broiler chickens): 1.761^b
mortality rate compared with non-supplemented controls (broiler chickens; alone or in combination): lower mortality rates

CSCC[C@H](N)C(=O)O [L-Met]
relative activation (highest activity = 100%) [4]: 100%

NCCCC[C@H](N)C(=O)O [L-Lys]
relative activation (highest activity = 100%) [1]: 10%
activation [5]: only amino acid that activated

Bacitracin MD [BMD, reference compound]
20-day cumulative feed conversion rate, Mean (straight run broilers): 1.3397
21-day cumulative feed conversion rate, Estimated Marginal Mean (straight run broilers): 1.340
21-day cumulative weight gain, Mean (straight run broilers): 832.9688 and 832.969
Day 42 Feed/Gain (broiler chickens): 2.147^c
Day 42 Gain/Bird (broiler chickens): 3.971^cd lb
Day 42 Mortality (%) (broiler chickens): 18.25^bc %
Day 42 Adjusted Feed/Gain (broiler chickens): 1.838^bc

CC(C)C[C@H](N)C(=O)O [L-Leu]
relative activation (highest activity = 100%) [2]: 17%
relative activation (highest activity = 100%) [3]: 7%
relative activation (highest activity = 100%) [4]: 98%

N[C@@H](Cc1ccccc1)C(=O)O [L-Phe]
relative activation (highest activity = 100%) [4]: 3.5%

CC(C)[C@H](N)C(=O)O [L-Val]
relative activation (highest activity = 100%) [1]: 100%
Km ([1]; read-out: apparent Km): 2750 µM
relative activation (highest activity = 100%) [2]: 100%
Km [2]: 1110 µM
relative activation (highest activity = 100%) [3]: 9%
relative activation (highest activity = 100%) [4]: 67%
